Results: US20090036475A1, “Pyrazolyl-Pyrimidines as Potassium Channel Modulating Agents and Their Medical Use” (NEUROSEARCH A/S, priority 2006, published 2009)

Molecular target: T1, small-conductance Ca2+-activated K+ channel, subtype 3 (SK3) (Homo sapiens, UniProt Q9UGI6)
T1 construct: expressed in transfected cells; host or cells: HEK293
Assay: Whole-cell patch-clamp recording of SK3 current in HEK293 cells
Type: cell-based
Settings: hSK3 stably expressed in HEK293 cells, baseline current at −20 mV, free Ca2+ 300 nM, room temperature
Procedure: The ionic current through small-conductance Ca^2+-activated K^+ channels (SK channels, subtype 3) is recorded using the whole-cell configuration of the patch-clamp technique.
The small-conductance Ca^2+-activated K^+ channel, subtype 3 (SK3) was cloned from human skeletal muscle and stably expressed in HEK293 cells.
Human SK3 (hSK3) was sub-cloned into the expression vector pNS3n, a customized vector derived from pcDNA3 (InVitrogen) to give the plasmid construct pNS3_hSK3. HEK293 tissue culture cells were grown in DMEM (Dulbecco's Modified Eagle Medium) supplemented with 10% FCS (foetal calf serum) at 37° C. in 5% CO2. […]
Experiments are carried out on one of several patch-clamp set-ups. […] Data are stored directly on the hard-disk and analysed by IGOR software (Wavemetrics, Lake Oswega, Oreg., USA).
The whole-cell configuration of the patch-clamp technique is applied. […] Cell capacitance is electronically compensated and the resistance between the pipette and the cell interior (the series resistance, Rs) is measured and compensated for. […]
The intracellular (pipette) solution has the following composition (in mM): 105 KCl, 45 KOH, 10 EGTA, 1.21 MgCl2, 7.63 CaCl2, and 10 HEPES (pH=7.2 with HCl). The calculated free concentration of Ca^2+ in this solution is 300 nM and that of Mg^2+ is 1 mM. […]
Active compounds are quantified by calculating the change in baseline current at −20 mV. […]

Structure (SMILES)	SC100 (Stimulating Concentration required for increasing the baseline current by 100%) [µM]
Cc1cc(NC2CCCCC2)nc(-n2nc(C)cc2C)n1 [Compound A2, Cyclohexyl-[2-(3,5-dimethyl-pyrazol-1-yl)-6-methyl-pyrimidin-4-yl]-amine]	0.1

System: not given
Assay: not given
Settings: not given

Structure (SMILES)	melting point [°C]
Cc1cc(C)n(-c2nccc(Nc3cccc(C(F)(F)F)c3)n2)n1 [Compound B8, [2-(3,5-Dimethyl-pyrazol-1-yl)-pyrimidin-4-yl]-(3-trifluoromethyl-phenyl)-amine]	98.5 to 99.6
Cc1cc(C)n(-c2ncc(Br)c(Nc3ccc(Cl)cc3)n2)n1 [Compound B10, [5-Bromo-2-(3,5-dimethyl-pyrazol-1-yl)-pyrimidin-4-yl]-(4-chloro-phenyl)-amine]	144.5 to 154
Cc1cc(C)n(-c2nccc(NC3CCCCC3)n2)n1 [Compound A5, Cyclohexyl-[2-(3,5-dimethyl-pyrazol-1-yl)-pyrimidin-4-yl]-amine]	144.5 to 146.7
Cc1cc(C)n(-c2ncc(C)c(Nc3ccc(Cl)cc3)n2)n1 [Compound B12, (4-Chloro-phenyl)-[2-(3,5-dimethyl-pyrazol-1-yl)-5-methyl-pyrimidin-4-yl]-amine]	179.2 to 182.3
Cc1cc(C)n(-c2ncc(Cl)c(NC3CCCCC3)n2)n1 [Compound A6, [5-Chloro-2-(3,5-dimethyl-pyrazol-1-yl)-pyrimidin-4-yl]-cyclohexyl-amine]	90 to 99
Cc1ccc(Nc2ccnc(-n3nc(C)cc3C)n2)cc1 [Compound B11, [2-(3,5-Dimethyl-pyrazol-1-yl)-pyrimidin-4-yl]-p-tolyl-amine]	52 to 55.6
Cc1cc(Nc2ccccc2)nc(-n2nc(C)cc2C)n1 [Compound B2, [2-(3,5-Dimethyl-pyrazol-1-yl)-6-methyl-pyrimidin-4-yl]-phenyl-amine]	134.5 to 138.8
Cc1cc(Nc2ccc(Cl)c(Cl)c2)nc(-n2nc(C)cc2C)n1 [Compound B4, (3,4-Dichloro-phenyl)-[2-(3,5-dimethyl-pyrazol-1-yl)-6-methyl-pyrimidin-4-yl]-amine]	135.3 to 137.8
Cc1cc(Nc2cccc(C(F)(F)F)c2)nc(-n2nc(C)cc2C)n1 [Compound B6, [2-(3,5-Dimethyl-pyrazol-1-yl)-6-methyl-pyrimidin-4-yl]-(3-trifluoromethyl-phenyl)-amine]	130.5 to 133.6
Cc1ccc(Nc2cc(C)nc(-n3nc(C)cc3C)n2)cc1 [Compound B1, [2-(3,5-Dimethyl-pyrazol-1-yl)-6-methyl-pyrimidin-4-yl]-p-tolyl-amine]	135.1 to 137.5
Cc1cc(NCc2ccccc2)nc(-n2nc(C)cc2C)n1 [Compound A1, Benzyl-[2-(3,5-dimethyl-pyrazol-1-yl)-6-methyl-pyrimidin-4-yl]-amine]	135.9 to 137.3
Cc1cc(Nc2ccc(Cl)cc2)nc(-n2nc(C)cc2C)n1 [Compound B3, (4-Chloro-phenyl)-[2-(3,5-dimethyl-pyrazol-1-yl)-6-methyl-pyrimidin-4-yl]-amine]	181 to 183.2
Cc1cc(C)n(-c2nccc(Nc3ccc(Cl)cc3)n2)n1 [Compound B9, (4-Chloro-phenyl)-[2-(3,5-dimethyl-pyrazol-1-yl)-pyrimidin-4-yl]-amine]	135.5 to 140
